Results: ChEMBL document CHEMBL1201862, “PubChem BioAssay data set” (2004)
Calls of active or inactive are those of the source.

How the values were obtained:
[1] = target: Ras and Rab interactor 1/Tyrosine-protein kinase ABL1 (Homo sapiens, UniProt P00519+Q13671); assay type: functional;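 note: biochemical TR-FRET dose-response test measuring inhibition of binding between Rin1 and Abl proteins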
[2] = target: T1, Streptokinase A (Streptococcus pyogenes serotype M1, UniProt P10520); assay: S. pyogenes streptokinase expression inhibitors, potency, dose response, plasminogen activation absorbance, OD405 (AID 1914); assay type: functional, Streptococcus pyogenes M1 GAS;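 note: secreted streptokinase activity via plasminogen activation per viability signal from cell pellet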
T1 sequence (P10520 whole entry): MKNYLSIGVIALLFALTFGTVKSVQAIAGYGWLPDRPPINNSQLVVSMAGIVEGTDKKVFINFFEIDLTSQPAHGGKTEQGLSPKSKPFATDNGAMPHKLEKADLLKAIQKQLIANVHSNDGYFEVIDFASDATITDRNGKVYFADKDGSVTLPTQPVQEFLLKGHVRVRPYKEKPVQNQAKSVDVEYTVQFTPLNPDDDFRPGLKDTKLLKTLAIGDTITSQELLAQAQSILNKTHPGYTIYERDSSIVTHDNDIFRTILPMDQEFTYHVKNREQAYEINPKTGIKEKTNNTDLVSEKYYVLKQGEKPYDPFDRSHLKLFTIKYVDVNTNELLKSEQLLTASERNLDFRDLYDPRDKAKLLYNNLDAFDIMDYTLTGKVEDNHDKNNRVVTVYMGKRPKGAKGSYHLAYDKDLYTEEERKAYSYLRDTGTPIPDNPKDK

[3] = tested on: Streptococcus sp. 'group A'; assay: growth inhibition of control SK(-) GAS strain, dose response, counter-screen for streptokinase expression inhibitor project, luminescence, kanamycin, BacTiterGlo, confirmation (AID 1900); assay type: functional, organism-based
[4] = tested on: Escherichia coli; assay: microbe, parasite or virus in culture
[5] = tested on: Streptococcus; assay: Group A Streptococcus viability loss, dose response, counter-screen for streptokinase expression inhibitor project, luminescence, BacTiterGlo (AID 1915); assay type: functional, organism-based;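 note: potency for reduction of bacterial viability or growth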
[6] = target: T2, ATP-dependent translocase ABCB1 (Homo sapiens, UniProt P08183); assay: ABCB1 efflux inhibitor potency, dose response, Jurkat-DNR cells, JC-1, flow cytometry, set 2 (AID 504569); assay type: functional; settings: read-out: EC50_MICROM_;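 note: potency of pump inhibitors that raise cellular JC-1 green fluorescence up to the nicardipine level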
[7] = target: T2, ATP-dependent translocase ABCB1; assay: ABCG2 efflux pump inhibitor potency, dose response, Ig-MXP3 cells, JC-1, flow cytometry, set 2 (AID 504566); assay type: functional; settings: read-out: EC50_MICROM_;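 note: flow cytometry median green fluorescence of retained JC-1 dye; potency of efflux pump inhibition measured as rising substrate retention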
[8] = ARNT/TACC3 interaction disruptors, potency, confirmation, biochemical, AlphaScreen, cherry-picked samples (AID 651703); assay type: functional, Homo sapiens;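 note: His-tagged ARNT PAS-B domain paired with GST-TACC3 E629A dimer coactivator fragment; potency of inhibitors that break up the complex and lower AlphaScreen signal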
[9] = target: T3, Leucine aminopeptidase (Plasmodium falciparum 3D7, UniProt Q8IL11); assay: P. falciparum M17LAP inhibitors, primary screen, biochemical, fluorogenic H-Leu-NHMec substrate, 1536-well (AID 1619); assay type: functional
T3 sequence (Q8IL11 whole entry): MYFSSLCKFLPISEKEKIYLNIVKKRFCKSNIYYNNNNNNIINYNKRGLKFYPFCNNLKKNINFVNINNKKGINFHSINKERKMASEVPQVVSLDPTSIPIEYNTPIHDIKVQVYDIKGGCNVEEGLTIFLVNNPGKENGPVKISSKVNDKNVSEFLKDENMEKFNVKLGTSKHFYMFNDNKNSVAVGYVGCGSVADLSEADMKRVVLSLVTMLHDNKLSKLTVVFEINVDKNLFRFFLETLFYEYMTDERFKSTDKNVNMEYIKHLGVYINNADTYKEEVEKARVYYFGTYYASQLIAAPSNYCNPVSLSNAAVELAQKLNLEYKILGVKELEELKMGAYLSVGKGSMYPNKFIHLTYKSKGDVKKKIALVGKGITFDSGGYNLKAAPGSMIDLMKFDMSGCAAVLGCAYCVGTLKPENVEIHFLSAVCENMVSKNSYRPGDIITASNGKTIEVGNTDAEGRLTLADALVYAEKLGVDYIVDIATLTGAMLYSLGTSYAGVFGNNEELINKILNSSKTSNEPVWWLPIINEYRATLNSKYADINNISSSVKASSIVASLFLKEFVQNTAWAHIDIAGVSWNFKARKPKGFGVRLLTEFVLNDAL

[10] = target: T4, High affinity choline transporter 1 (Homo sapiens, UniProt Q9GZV3); assay: CHT inhibitors, dose response, cell-based, 5-point CRC, membrane potential dye (AID 504840); assay type: functional
T4 sequence (Q9GZV3 whole entry): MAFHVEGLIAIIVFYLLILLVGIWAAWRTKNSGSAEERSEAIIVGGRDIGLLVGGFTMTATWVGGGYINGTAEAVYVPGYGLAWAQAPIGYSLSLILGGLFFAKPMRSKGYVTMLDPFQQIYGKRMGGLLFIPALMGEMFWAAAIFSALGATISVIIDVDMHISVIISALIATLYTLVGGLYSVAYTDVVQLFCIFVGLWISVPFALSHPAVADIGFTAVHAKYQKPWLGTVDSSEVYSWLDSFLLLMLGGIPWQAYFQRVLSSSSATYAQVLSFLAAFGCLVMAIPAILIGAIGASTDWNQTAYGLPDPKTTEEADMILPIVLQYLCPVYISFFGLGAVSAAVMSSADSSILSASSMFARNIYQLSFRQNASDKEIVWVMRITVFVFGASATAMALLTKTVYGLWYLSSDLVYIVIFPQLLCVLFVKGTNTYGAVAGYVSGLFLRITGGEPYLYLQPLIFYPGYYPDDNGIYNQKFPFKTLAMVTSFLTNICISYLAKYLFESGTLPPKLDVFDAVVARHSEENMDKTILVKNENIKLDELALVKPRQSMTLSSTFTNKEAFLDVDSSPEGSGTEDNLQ

[11] = target: T4, High affinity choline transporter 1; assay: CHT inhibitors, dose response, cell-based, 10-point CRC, membrane potential dye (AID 588401); assay type: functional;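 note: membrane potential dye fluorescence of choline-evoked depolarization via CHT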
[12] = target: Photoreceptor-specific nuclear receptor (Homo sapiens, UniProt Q9Y5X4); assay type: functional, cell-based;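 note: CHO-S cells with Gal4-NCOR and VP16-NR2E3 two-hybrid luciferase reporter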
[13] = tested on: Escherichia coli; assay: microbe, parasite or virus in culture; remark: listed apart in the source
[14] = Luminescence Cell-Based Dose Retest to Confirm Inhibitors of Cancer Stem Cells. [Related pubchem assays (depositor defined):AID2717, AID2721]; assay type: functional; settings: Homo sapiens
[15] = target: ATP-dependent molecular chaperone HSP82 (Candida albicans (strain WO-1) (Yeast), UniProt C4YTQ8); assay: loss of DOC-induced GRE-beta-galactosidase reporter signal, dose response, Hsp90 inhibitor project, S. cerevisiae, luminescence (AID 2400); assay type: functional, cell-based;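 note: beta-galactosidase luminescence from glucocorticoid response element reporter as proxy for Hsp90 function; inhibitor potency where signal loss means Hsp90 inhibition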
[16] = C. albicans growth with fluconazole, confirmation, fluorescence, retest (AID 2467); assay type: functional, cell-based
[17] = NIH-3T3 fibroblast cytotoxicity, dose response, cytotoxicity control, cell-based, fluorescence, Alamar Blue, secondary assay (AID 2327); assay type: functional;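 note: NIH-3T3 mouse fibroblasts cultured with fluconazole at 8 µg/mL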
[18] = target: T5, Serine/threonine-protein phosphatase (Candida dubliniensis (strain CD36 / CBS 7987 / NCPF 3949 / NRRLY-17841) (Yeast), UniProt B9W6M3); assay: calcineurin pathway inhibitors in yeast reporter, dose response, S. cerevisiae, CDRE-lacZ, luminescence, secondary (AID 2388); assay type: functional, cell-based;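 note: yeast reporter cells carrying a calcineurin-responsive lacZ construct stimulated with calcium chloride; luminescent beta-galactosidase reporter signal in whole cells rather than isolated phosphatase activity; potency for inhibition where a drop in reporter signal means calcineurin blockade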
T5 sequence (B9W6M3 whole entry): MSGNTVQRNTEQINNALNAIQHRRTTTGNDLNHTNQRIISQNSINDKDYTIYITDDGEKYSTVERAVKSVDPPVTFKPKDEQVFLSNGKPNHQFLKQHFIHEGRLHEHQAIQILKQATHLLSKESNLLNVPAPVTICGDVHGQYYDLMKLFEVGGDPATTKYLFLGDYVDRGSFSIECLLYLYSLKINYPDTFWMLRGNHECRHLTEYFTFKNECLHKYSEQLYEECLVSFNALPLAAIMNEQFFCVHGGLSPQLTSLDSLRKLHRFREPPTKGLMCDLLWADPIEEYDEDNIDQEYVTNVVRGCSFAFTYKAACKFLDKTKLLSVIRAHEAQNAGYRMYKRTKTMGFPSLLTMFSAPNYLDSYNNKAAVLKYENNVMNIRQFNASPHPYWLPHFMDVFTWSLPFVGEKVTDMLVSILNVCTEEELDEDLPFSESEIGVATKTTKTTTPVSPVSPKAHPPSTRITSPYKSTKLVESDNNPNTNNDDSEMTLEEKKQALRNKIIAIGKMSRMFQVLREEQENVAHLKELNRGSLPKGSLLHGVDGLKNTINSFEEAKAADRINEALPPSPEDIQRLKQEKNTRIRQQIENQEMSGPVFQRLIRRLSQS

[19] = target: Potassium voltage-gated channel subfamily KQT member 2 (Rattus norvegicus, UniProt O88943); assay: KCNQ2 potassium channel inhibitors, dose response, cell-based, automated electrophysiology, set II, rat KCNQ2 (AID 588637); assay type: functional
[20] = inhibitors of SNCA 5'UTR-driven reporter translation, confirmation, H4 neuroglioma cells, luminescence (AID 1988); assay type: functional, cell-based
[21] = inhibitors of intracellular T. cruzi replication, confirmation, NIH3T3 host cells, beta-gal luminescence (AID 2044); assay type: functional, cell-based;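 note: intracellular parasites grown in NIH/3T3 mouse fibroblasts as host cells; luminescent beta-galactosidase reporter signal from transgenic T. cruzi replicating inside host cells; inhibitors lower the luminescence signal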
[22] = inhibitors of firefly luciferase expression or activity, dose response, H4 neuroglioma cells, luminescence (AID 1990); assay type: functional, cell-based
[23] = Luminescence Cell-Based Dose Response HTS to Identify Inhibitors of 5'UTR Stem-Loop Driven Prion Protein mRNA Translation in H4 Neuroglioblastoma Cells. [Related pubchem assays: 1827 (Project Summary), 1813 (Primary HTS)]; assay type: functional
[24] = tested on: INS1; assay: beta cell apoptosis inhibitors, cytokine rescue, dose response, luminescence, retest (AID 449756); assay type: functional, cell-based; settings: Rattus norvegicus;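 note: cell death triggered by IL-1 beta plus TNF-alpha plus IFN-gamma mixture; protective hits raise ATP signal compared with cytokine alone wells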
[25] = cytotoxicity toward NIH3T3 fibroblasts, dose response, counter-screen, cell-based, ATP luminescence, mouse fibroblasts (AID 2010); assay type: functional;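 note: cells exposed to compound for about 90 hours before reading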
[26] = target: T6, Probable nicotinate-nucleotide adenylyltransferase (Staphylococcus aureus (strain N315), UniProt P65502); assay type: functional, Staphylococcus aureus subsp. aureus N315; settings: read-out: IC50_Mean;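 for IC50 Mean: confirmatory dose-response retesting of NadD inhibitor hits first found in an ultra-high-throughput screen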
[27] = cells; assay type: functional, cell-based
[28] = target: T6, Probable nicotinate-nucleotide adenylyltransferase; assay type: functional, Staphylococcus aureus subsp. aureus N315
[29] = cells; assay type: functional, cell-based; remark: listed apart in the source
[30] = A cytotoxicity screen of small molecule inhibitors of the PhoP region in Salmonella typhi identified in the primary screen. [Related pubchem assays: 1850, 1864, 1985 ]; assay type: functional

T2 sequence (P08183 whole entry): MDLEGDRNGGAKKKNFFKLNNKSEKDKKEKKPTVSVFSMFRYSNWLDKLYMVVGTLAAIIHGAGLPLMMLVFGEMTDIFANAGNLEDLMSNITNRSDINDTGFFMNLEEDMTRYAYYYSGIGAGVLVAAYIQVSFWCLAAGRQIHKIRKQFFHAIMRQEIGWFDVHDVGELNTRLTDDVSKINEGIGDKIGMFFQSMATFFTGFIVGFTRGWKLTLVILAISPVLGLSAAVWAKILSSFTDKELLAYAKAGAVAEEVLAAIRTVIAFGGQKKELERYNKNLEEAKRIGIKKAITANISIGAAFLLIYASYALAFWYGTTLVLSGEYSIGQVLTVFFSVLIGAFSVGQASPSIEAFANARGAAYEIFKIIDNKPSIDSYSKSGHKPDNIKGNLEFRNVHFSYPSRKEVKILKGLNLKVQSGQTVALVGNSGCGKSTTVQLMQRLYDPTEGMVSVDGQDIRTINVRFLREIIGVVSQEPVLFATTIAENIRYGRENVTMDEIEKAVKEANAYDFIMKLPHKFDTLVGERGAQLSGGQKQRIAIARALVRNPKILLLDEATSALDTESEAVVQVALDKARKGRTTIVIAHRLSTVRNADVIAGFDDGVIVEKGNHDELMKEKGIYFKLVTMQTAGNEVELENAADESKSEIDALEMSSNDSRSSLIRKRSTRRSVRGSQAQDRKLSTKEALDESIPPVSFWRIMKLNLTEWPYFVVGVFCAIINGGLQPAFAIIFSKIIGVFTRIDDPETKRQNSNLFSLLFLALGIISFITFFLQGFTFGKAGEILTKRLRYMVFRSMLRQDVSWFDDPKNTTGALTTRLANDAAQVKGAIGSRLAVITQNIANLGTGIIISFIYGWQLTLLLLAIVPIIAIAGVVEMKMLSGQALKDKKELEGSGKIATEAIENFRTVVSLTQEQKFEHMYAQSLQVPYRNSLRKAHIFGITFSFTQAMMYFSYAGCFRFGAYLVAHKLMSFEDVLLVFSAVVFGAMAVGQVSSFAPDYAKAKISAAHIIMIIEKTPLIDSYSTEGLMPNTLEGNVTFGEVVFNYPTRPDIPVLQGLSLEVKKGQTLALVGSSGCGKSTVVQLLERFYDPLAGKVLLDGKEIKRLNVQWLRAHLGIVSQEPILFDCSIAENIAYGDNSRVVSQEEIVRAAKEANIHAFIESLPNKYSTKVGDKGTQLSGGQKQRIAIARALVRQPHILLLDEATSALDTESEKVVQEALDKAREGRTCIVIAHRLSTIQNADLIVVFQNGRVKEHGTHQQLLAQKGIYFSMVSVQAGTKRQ
Sequence of Photoreceptor-specific nuclear receptor (Q9Y5X4 whole entry, the tested form may be a part): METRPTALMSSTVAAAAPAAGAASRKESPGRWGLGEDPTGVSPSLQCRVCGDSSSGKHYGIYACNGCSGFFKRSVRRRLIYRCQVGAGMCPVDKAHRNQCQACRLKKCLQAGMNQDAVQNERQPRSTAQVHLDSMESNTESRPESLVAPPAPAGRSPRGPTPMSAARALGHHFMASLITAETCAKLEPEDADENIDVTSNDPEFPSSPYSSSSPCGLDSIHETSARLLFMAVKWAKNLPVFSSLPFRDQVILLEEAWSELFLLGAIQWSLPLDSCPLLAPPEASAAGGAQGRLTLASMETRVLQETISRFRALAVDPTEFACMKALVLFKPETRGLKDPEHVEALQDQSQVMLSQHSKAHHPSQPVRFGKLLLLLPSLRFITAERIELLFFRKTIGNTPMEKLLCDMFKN
Sequence of ATP-dependent molecular chaperone HSP82 (C4YTQ8 whole entry): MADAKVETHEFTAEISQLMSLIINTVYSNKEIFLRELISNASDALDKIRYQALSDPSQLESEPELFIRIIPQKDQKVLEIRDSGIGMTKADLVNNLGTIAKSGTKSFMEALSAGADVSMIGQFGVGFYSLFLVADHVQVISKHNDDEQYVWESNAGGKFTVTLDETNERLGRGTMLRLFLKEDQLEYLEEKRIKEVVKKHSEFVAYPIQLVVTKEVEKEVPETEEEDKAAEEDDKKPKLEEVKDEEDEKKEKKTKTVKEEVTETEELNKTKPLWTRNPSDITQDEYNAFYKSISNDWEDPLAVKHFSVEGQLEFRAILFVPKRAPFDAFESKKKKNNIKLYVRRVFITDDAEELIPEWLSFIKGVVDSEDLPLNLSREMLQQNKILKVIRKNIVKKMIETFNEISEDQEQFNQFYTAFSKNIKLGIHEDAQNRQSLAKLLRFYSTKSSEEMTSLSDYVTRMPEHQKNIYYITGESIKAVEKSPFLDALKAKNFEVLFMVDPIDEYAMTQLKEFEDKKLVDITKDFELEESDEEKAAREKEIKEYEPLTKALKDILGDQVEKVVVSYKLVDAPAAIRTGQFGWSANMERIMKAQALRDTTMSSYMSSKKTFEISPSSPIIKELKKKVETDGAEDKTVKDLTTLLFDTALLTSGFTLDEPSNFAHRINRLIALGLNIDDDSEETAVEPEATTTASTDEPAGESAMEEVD
Sequence of Ras and Rab interactor 1/Tyrosine-protein kinase ABL1 (P00519 whole entry): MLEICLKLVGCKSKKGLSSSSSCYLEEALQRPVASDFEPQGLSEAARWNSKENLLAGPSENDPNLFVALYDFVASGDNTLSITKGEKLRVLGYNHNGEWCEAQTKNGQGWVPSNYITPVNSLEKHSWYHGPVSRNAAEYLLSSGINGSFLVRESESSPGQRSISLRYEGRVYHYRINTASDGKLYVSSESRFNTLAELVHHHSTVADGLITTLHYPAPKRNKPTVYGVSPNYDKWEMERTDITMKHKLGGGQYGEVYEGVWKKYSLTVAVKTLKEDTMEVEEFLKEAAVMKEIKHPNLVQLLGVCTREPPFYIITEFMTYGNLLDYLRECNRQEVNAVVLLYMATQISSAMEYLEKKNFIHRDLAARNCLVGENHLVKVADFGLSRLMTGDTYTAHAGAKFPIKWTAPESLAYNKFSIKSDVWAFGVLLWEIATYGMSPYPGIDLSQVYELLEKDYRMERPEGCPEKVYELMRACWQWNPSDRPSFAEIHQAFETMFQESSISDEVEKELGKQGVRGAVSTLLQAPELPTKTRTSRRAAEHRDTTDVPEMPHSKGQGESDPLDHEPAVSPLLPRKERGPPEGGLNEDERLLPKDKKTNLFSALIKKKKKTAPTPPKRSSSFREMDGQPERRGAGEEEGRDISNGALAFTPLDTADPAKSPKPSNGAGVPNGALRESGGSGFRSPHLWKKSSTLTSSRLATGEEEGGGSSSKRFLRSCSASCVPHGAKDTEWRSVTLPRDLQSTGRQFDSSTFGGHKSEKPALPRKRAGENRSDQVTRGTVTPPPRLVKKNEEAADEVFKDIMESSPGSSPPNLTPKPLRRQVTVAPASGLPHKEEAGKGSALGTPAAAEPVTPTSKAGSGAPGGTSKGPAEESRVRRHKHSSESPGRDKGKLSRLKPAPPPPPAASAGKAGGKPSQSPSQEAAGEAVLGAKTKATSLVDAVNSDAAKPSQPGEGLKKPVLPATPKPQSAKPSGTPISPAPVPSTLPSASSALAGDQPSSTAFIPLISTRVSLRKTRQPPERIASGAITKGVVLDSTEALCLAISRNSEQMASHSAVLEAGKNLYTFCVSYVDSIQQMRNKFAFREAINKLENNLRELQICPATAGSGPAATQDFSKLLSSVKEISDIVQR
Sequence of Ras and Rab interactor 1/Tyrosine-protein kinase ABL1 (Q13671 whole entry): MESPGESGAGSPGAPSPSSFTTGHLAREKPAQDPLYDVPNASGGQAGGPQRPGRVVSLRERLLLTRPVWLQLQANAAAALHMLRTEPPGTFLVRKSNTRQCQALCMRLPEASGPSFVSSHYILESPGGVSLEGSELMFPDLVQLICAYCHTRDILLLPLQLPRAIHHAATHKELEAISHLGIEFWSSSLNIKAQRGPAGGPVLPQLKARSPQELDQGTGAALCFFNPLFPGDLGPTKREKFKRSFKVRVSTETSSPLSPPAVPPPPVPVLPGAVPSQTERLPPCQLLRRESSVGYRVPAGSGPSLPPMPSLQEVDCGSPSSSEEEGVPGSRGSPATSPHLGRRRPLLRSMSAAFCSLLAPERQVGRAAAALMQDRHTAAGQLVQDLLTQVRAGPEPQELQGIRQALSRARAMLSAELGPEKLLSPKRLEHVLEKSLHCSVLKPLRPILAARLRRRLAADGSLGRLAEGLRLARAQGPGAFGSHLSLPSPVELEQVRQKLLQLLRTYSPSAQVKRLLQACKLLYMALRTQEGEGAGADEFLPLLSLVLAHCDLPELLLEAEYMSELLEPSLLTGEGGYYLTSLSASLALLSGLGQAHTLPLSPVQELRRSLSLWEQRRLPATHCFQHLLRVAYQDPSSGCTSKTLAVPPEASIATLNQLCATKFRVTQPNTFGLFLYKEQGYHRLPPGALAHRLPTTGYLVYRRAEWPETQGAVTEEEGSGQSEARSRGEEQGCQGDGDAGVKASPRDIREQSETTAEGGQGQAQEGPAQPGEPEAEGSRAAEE
T6 sequence (P65502 whole entry): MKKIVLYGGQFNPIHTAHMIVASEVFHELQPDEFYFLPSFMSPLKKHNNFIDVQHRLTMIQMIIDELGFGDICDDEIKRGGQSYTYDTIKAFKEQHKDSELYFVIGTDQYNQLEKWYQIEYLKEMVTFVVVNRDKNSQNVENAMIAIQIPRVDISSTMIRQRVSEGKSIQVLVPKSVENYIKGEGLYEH

CSc1ccccc1OCc1cc(C(=O)N2CCNC(=O)C2)no1
IC50 [1]: 6.88 µM (active)

Cc1cc(-c2c(C)[nH]n(-c3ccc(Cl)cc3)c2=O)n(-c2ccc(Cl)cc2)n1
EC50 [2]: > 150 µM (not active) | EC50 [3]: 17.8 µM (active) | AC50 [4]: 46.2 µM (active) | EC50 [5]: 62.8 µM (active)

O=C(c1ccc(Cl)cc1)N1CCN(c2cc(-c3ccccc3)nc3cc(-c4cccc(Cl)c4)nn23)CC1
EC50 [6]: 1.74 µM (active) | EC50 [7]: 1.99 µM (active)

C[C@@H]1CCCCO[C@@H](CN(C)C(=O)Nc2ccc3c(c2)OCO3)[C@@H](C)CN([C@@H](C)CO)C(=O)c2cc(N(C)C)ccc2O1
AC50 [8]: 114 µM (active)

O=C(O)COc1ccccc1/C=N/NC(=O)c1cccc(S(=O)(=O)Nc2cccc(Cl)c2)c1
AC50 [8]: 73.8 µM (active) | IC50 [9]: 21.3 µM (active)

Cc1ccc(CNC(=O)c2ccccc2NS(=O)(=O)c2ccc(Cl)nc2)cc1
IC50 [10]: 7.31 µM (active) | IC50 [11]: 4.22 µM (active)

COc1ccc(-n2c(C)cc(C(=O)COC(=O)c3ccc(O)cc3O)c2C)cc1
IC50 [12]: 5.7 µM (active)

O=C(c1ccco1)N1CCN(c2cc(-c3ccccc3)nc3cc(-c4ccc(Cl)cc4)nn23)CC1
EC50 [6]: 2.6 µM (active) | EC50 [7]: 0.99 µM (active)

CCc1nnc(NC(=O)CCc2nc(C3=CCN(C)CC3)no2)s1
IC50 [1]: 3.81 µM (active)

O=C(c1ccccc1F)N1C(=O)c2cccc3cccc1c23
AC50 [4]: 38.6 µM (active)

Cc1cccc(OCC(=O)N2CCOCC2)c1
AC50 [4]: 37.1 µM (active) | AC50 [13]: 103 µM (active)

O=C(NC(=O)N1CCN(c2cccc(Cl)c2)CC1)c1ccc(Cl)cc1
IC50 [12]: 3.05 µM (active) | AC50 [14]: 0.263 µM (active)

CC(CC(=O)Nc1ncc([N+](=O)[O-])s1)c1ccccc1 (centres undefined)
EC50 [15]: > 160 µM (inactive) | EC50 [16]: 0.76 µM (active) | EC50 [17]: > 150 µM (inactive) | EC50 [18]: > 180 µM (inactive)

COC(=O)C(Cc1ccccc1)NCC(=O)Nc1cccc(Cl)c1C (centres undefined)
IC50 [19]: 1.57 µM (active)

COc1ccc2cc(C(c3nnnn3CCc3ccccc3)N3CCCC(C)C3)c(=O)[nH]c2c1 (centres undefined)
IC50 [19]: 2.7 µM (active)

Cc1ccc(C(=O)O/N=C/c2c(N3CCOCC3)n(C)c3ccccc23)cc1
EC50 [20]: > 120 µM (not active) | EC50 [21]: 0.799 µM (active) | EC50 [22]: > 120 µM (not active) | EC50 [15]: > 160 µM (inactive) | EC50 [23]: 10.9 µM (active) | AC50 [24]: 0.915 µM (active) | EC50 [16]: 0.419 µM (active) | EC50 [25]: 3.44 µM (active) | EC50 [17]: > 160 µM (inconclusive) | EC50 [18]: > 180 µM (inactive)

Cc1ccc(C(=O)Nc2cccc([N+](=O)[O-])c2)cc1S(=O)(=O)Nc1ccc(NC(=O)c2ccccc2)cc1
IC50 [26]: 61.1 µM (active) | EC50 [27]: > 350 µM (not active) | IC50 [28]: 25.9 µM (active) | EC50 [29]: > 350 µM (not active)

NS(=O)(=O)c1ccc(CNc2ccc3ccccc3n2)cc1
IC50 [10]: 3.76 µM (active) | IC50 [11]: 3.57 µM (active) | EC50 [30]: > 50 µM (active)
